The values that follow come from ChEMBL document CHEMBL1201862, “PubChem BioAssay data set” (2004).

Structures are written as SMILES.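 Method: 48-hour compound exposure of cells in 96-well plates, five concentrations, linear interpolation of endpoints. GI50 marks 50% less growth.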 Active and inactive are the calls of the source. Cut-off read from the data, not from the text of the source: active = GI50 up to about 1.1 µM and inactive = higher. Bounds are passed on as bounds.

What all share (experiment): NCI tumour cell line growth inhibition, 48 h
Assay [1] deals with BT-549.
In assay [2] the test system is HL-60.
The subject of assay [3] is PC-3.
Assay [4] concerns HCC 2998.
Assay [5] deals with MDA-MB-231.
In assay [6] the test system is UACC-257.
For assay [7], the system named is A498.
The subject of assay [8] is OVCAR-4.
Assay [9] has as its system K562.
The test system of assay [10] is HCT-116.
Assay [11] deals with SK-OV-3.
The test system of assay [12] is NCI-H23.
The test system of assay [13] is IGROV-1.
The test system of assay [14] is ACHN.
Assay [15] relates to Hs-578T.
In assay [16] the test system is SK-MEL-28.
The subject of assay [17] is MDA-MB-435.
The subject of assay [18] is SK-MEL-2.
The test system of assay [19] is T47D.

Consider `COc1ccc(Cn2c3ccc([N+](=O)[O-])cc3c(=O)n2Cc2ccccn2)cc1`, for which the GI50 in assay [1] was > 100 µM (inactive); in assay [2], 28.9 µM (inactive); in assay [3] it was 85.9 µM (inactive); in [4], > 100 µM (inactive); in assay [5], > 100 µM (inactive); in assay [6], 55.1 µM (inactive). For the same compound, the GI50 in [7] is > 100 µM (inactive); in assay [8], 56.1 µM (inactive); in assay [9] it was 67 µM (inactive); in assay [10] it was > 100 µM (inactive); in assay [11], > 100 µM (inactive); in [12], 66.2 µM (inactive). The GI50 in assay [13] is > 100 µM (inactive); in assay [14], 87.9 µM (inactive); in assay [15], > 100 µM (inactive); in [16], > 100 µM (inactive); in assay [17], 76.4 µM (inactive); in [18] it was > 100 µM (inactive). In [19], the GI50 was 18.2 µM (inactive).

As for `CCc1nnc2sc(-c3ccc(-c4ccccc4[N+](=O)[O-])o3)nn12`, the GI50 in assay [1] is 36.6 µM (inactive); in assay [2], 24 µM (inactive); in [3], 42.9 µM (inactive); in assay [4], 50.1 µM (inactive); in assay [5] it was 53.1 µM (inactive); in assay [6], 61.7 µM (inactive). Moreover, the GI50 in assay [7] was 54 µM (inactive); in assay [8], 53.1 µM (inactive); in assay [9], 27.7 µM (inactive); in [10], 37.3 µM (inactive); in assay [11], 40 µM (inactive); in assay [12] it was 32.9 µM (inactive). Moreover, the GI50 in assay [13] is 47.9 µM (inactive); in assay [14], 62.2 µM (inactive); in [15], 54.3 µM (inactive); in assay [17] it was 20.3 µM (inactive); in assay [18] it was 28.1 µM (inactive); in [19] it was 36.3 µM (inactive).

Regarding `Nc1ccc(C(=O)CC(N)C(=O)O)cc1O` (stereo not given), the GI50 in [1], in assay [2], in [3], in assay [4], in [5] and in [6] was > 100 µM (inactive) in each case. In addition, the GI50 was > 100 µM (inactive) in [7]; > 100 µM (inactive) in [8]; > 100 µM (inactive) in assay [9]; > 100 µM (inactive) in [10]; 31.9 µM (inactive) in assay [11]; > 100 µM (inactive) in assay [12]. Moreover, the GI50 in assay [13], in assay [14], in assay [15], in [16], in assay [17] and in assay [18] was > 100 µM (inactive) throughout. Further, the GI50 in assay [19] is > 100 µM (inactive).

Turning to `O=C(C[C@@H]1NCCC[C@H]1O)Cn1cnc2cc(Br)c(Cl)cc2c1=O`, the GI50 in assay [1] was 0.0347 µM (active); in assay [2] it was 0.033 µM (active); in [3] it was 0.0351 µM (active); in [4] it was 0.0458 µM (active); in assay [5], 0.0284 µM (active); in assay [6], 0.0336 µM (active). In addition, the GI50 was 0.0327 µM (active) in assay [7]; 0.0186 µM (active) in assay [8]; 0.0216 µM (active) in [9]; 0.023 µM (active) in [10]; < 0.0118 µM (active) in assay [11]; 0.0195 µM (active) in [12]. Moreover, the GI50 in assay [13] was 0.0296 µM (active); in [14] it was 0.0233 µM (active); in assay [15], 0.0274 µM (active); in assay [16], 0.0274 µM (active); in [17], 0.012 µM (active); in assay [18], 0.0148 µM (active). Moreover, the GI50 in [19] was 0.0246 µM (active).

Consider `Cc1ccc(S(=O)(=O)Oc2coc(CO)cc2=O)cc1`, for which the GI50 in [1] is 13.8 µM (inactive); in [2], 3.14 µM (inactive); in assay [3], 15.1 µM (inactive); in assay [4] it was 13.7 µM (inactive); in [5] it was 18.6 µM (inactive); in assay [6], 15.3 µM (inactive). The GI50 is 15.5 µM (inactive) in [7]; 15.1 µM (inactive) in assay [8]; 6.04 µM (inactive) in [9]; 4.25 µM (inactive) in [10]; 17.1 µM (inactive) in assay [11]; 16.8 µM (inactive) in assay [12]. Also, the GI50 in [13] was 9.29 µM (inactive); in assay [14], 18 µM (inactive); in [15] it was 19.5 µM (inactive); in assay [16], 17.3 µM (inactive); in [17] it was 6.85 µM (inactive); in assay [18], 20.3 µM (inactive). Moreover, the GI50 in [19] was 13.3 µM (inactive).

On to `CS(=O)(=O)Nc1ccc2c(c1)N(S(C)(=O)=O)CC2COS(C)(=O)=O` (stereo not given), for which the GI50 in assay [1] is 50.4 µM (inactive); in assay [2] it was 25.2 µM (inactive); in assay [3] it was > 100 µM (inactive); in assay [4] it was > 100 µM (inactive); in assay [5] it was > 100 µM (inactive); in assay [6], > 100 µM (inactive). The GI50 was 85.9 µM (inactive) in assay [7]; 76 µM (inactive) in [8]; 52.4 µM (inactive) in [9]; 54.6 µM (inactive) in [10]; 45.1 µM (inactive) in assay [12]; > 100 µM (inactive) in [13]. The GI50 was 35.7 µM (inactive) in assay [14]; 94.2 µM (inactive) in assay [15]; > 100 µM (inactive) in [16]; > 100 µM (inactive) in assay [17]; 19.9 µM (inactive) in assay [18]; > 100 µM (inactive) in assay [19].

As to `O=CNc1ccccc1OCCOc1ccccc1NC=O`, the GI50 in assay [1], in assay [2], in assay [3], in [4], in assay [5] and in assay [6] was > 100 µM (inactive) each time. The GI50 in assay [7], in assay [8], in assay [9], in [10], in assay [11] and in assay [12] was > 100 µM (inactive) throughout. Further, the GI50 in [13], in [14], in assay [15], in [16], in assay [17] and in assay [18] was > 100 µM (inactive) in each case. Besides, the GI50 in assay [19] was > 100 µM (inactive).

Take `CCc1n[nH]c(=O)n1NC(=O)/C=C\C(=O)O`: the GI50 in [1], in assay [2], in assay [3], in assay [4], in assay [5] and in [6] was > 100 µM (inactive) in each case. In addition, the GI50 in assay [7], in assay [8], in [9], in assay [10], in assay [11] and in assay [12] was > 100 µM (inactive) each time. The GI50 in assay [13], in assay [15], in assay [17], in [18] and in assay [19] was > 100 µM (inactive) each time.

Take `COc1ccc2c(c1)CN([C@@H](C)[C@H]1CC[C@H]3[C@@H]4CC[C@H]5C[C@@H](O)CC[C@]5(C)[C@H]4CC[C@]13C)CO2`: the GI50 in assay [1] is 3.38 µM (inactive); in [2], 2.47 µM (inactive); in assay [3] it was 2.44 µM (inactive); in assay [4], 1.61 µM (inactive); in assay [5] it was 2.42 µM (inactive); in assay [6], 2.2 µM (inactive). Further, the GI50 in [7] is 1.88 µM (inactive); in [8], 4.05 µM (inactive); in [9], 0.787 µM (active); in [10], 2.17 µM (inactive); in assay [11], 1.7 µM (inactive); in assay [12], 1.89 µM (inactive). The GI50 in [13] is 3.95 µM (inactive); in [14], 3.21 µM (inactive); in assay [15], 1.61 µM (inactive); in assay [16] it was 2.48 µM (inactive); in assay [17] it was 1.75 µM (inactive); in [18] it was 1.96 µM (inactive). In addition, the GI50 in assay [19] was 3.56 µM (inactive).

On to `O=C(O)CCO/N=C1/C(=C2/C(=O)Nc3ccccc32)Nc2ccccc21`, for which the GI50 was 24.5 µM (inactive) in assay [1]; 23.7 µM (inactive) in assay [2]; 25.4 µM (inactive) in assay [3]; 15.3 µM (inactive) in assay [4]; 37.4 µM (inactive) in assay [5]; 39.5 µM (inactive) in assay [6]. For the same compound, the GI50 in [7] was 5.6 µM (inactive); in assay [8], 26.2 µM (inactive); in [9] it was 36.7 µM (inactive); in assay [10] it was 12.3 µM (inactive); in assay [11], 2.98 µM (inactive); in assay [12] it was 17.7 µM (inactive). The GI50 in [13] was 11.9 µM (inactive); in [14], 15.2 µM (inactive); in assay [15] it was 21.1 µM (inactive); in assay [16] it was 33.3 µM (inactive); in assay [17], 29.6 µM (inactive); in [18], 7.18 µM (inactive). Besides, the GI50 in assay [19] was 13.3 µM (inactive).

In the case of `Cc1ccnc2nc(-c3ccc(Cl)cc3)cc(O)c12`, the GI50 in assay [1] is > 100 µM (inactive); in assay [2] it was 1.58 µM (inactive); in assay [3], 2.89 µM (inactive); in [4], > 27.4 µM (inactive); in assay [5] it was 14.8 µM (inactive); in assay [6], > 100 µM (inactive). The GI50 in assay [7] is 3.65 µM (inactive); in assay [8], > 23.8 µM (inactive); in assay [9], 1.89 µM (inactive); in assay [10], 4.46 µM (inactive); in assay [11] it was 3.86 µM (inactive); in assay [12] it was 6.31 µM (inactive). For the same compound, the GI50 was 3.01 µM (inactive) in [13]; > 24.9 µM (inactive) in [14]; 3.9 µM (inactive) in assay [15]; 7.78 µM (inactive) in assay [16]; 0.578 µM (active) in assay [17]; 72.4 µM (inactive) in assay [18]. Also, the GI50 in assay [19] was > 24.5 µM (inactive).
